In ChEMBL document CHEMBL4311994, “New 2,6-diaminopyridines containing a sterically hindered benzylphosphonate moiety in the aromatic core as potential antioxidant and anti-cancer drugs” (Eur J Med Chem, 2019):
Active and inactive are the calls of the source. No cut-off for these calls is given here.

Columns and labels:
[1] = Hemolytic activity in human erythrocytes at 10.0 +/- 0.8 uM incubated for 1 hrs by photometric analysis relative to control; type: ADME, cell-based, Erythrocyte; details: read-out: Activity
[2] = Antioxidant activity assessed as ABAP free radical scavenging activity by measuring decrease in chemiluminescence intensity at 0.25 to 1 mM by luminescence based assay; type: functional
[3] = tested on: Aspergillus niger; test: Antimicrobial activity against Aspergillus niger BKMF 1119 by serial dilution method; type: functional
[4] = tested on: M-HeLa; test: Induction of apoptosis in human M-HeLa cells assessed as effect on Bad expression at IC50 incubated for 24 hrs by luminescence based assay; type: functional, cell-based
[5] = tested on: Bacillus cereus; test: Antimicrobial activity against Bacillus cereus ATCC 8035 by serial dilution method; type: functional
[6] = tested on: Candida albicans; test: Antimicrobial activity against Candida albicans 855-653 by serial dilution method; type: functional
[7] = tested on: M-HeLa; test: Induction of apoptosis in human M-HeLa cells assessed as increase in JNK expression at IC50 incubated for 24 hrs by luminescence based assay; type: functional, cell-based
[8] = tested on: M-HeLa; test: Induction of apoptosis in human M-HeLa cells assessed as increase in caspase 9 expression at IC50 incubated for 24 hrs by luminescence based assay relative to control; type: functional
[9] = tested on: Escherichia coli; test: Antimicrobial activity against Escherichia coli CDC F-50 by serial dilution method; type: functional
[10] = tested on: MCF7; test: Antiproliferative activity against human MCF7 cells by fluorescence based viable cell counting method; type: functional
[11] = Hemolytic activity in human erythrocytes at 50.0 +/- 4.3 uM incubated for 1 hrs by photometric analysis relative to control; type: ADME, cell-based, Erythrocyte; details: read-out: Activity
[12] = tested on: Trichophyton mentagrophytes; test: Antimicrobial activity against Trichophyton mentagrophytes var. gypseum 1773 by serial dilution method; type: functional
[13] = Cytotoxicity against human Chang cells assessed as reduction in cell viability by fluorescence based viable cell counting method
[14] = tested on: M-HeLa; test: Antiproliferative activity against human M-HeLa cells by fluorescence based viable cell counting method; type: functional
[15] = tested on: M-HeLa; test: Induction of apoptosis in human M-HeLa cells assessed as increase in caspase 8 expression at IC50 incubated for 24 hrs by luminescence based assay; type: functional, cell-based
[16] = tested on: M-HeLa; test: Induction of apoptosis in human M-HeLa cells assessed as increase in p53 expression at IC50 incubated for 24 hrs by luminescence based assay; type: functional, cell-based
[17] = Hemolytic activity in human erythrocytes at 100.0 +/- 7.8 uM incubated for 1 hrs by photometric analysis relative to control; type: ADME, cell-based, Erythrocyte; details: read-out: Activity
[18] = tested on: Staphylococcus aureus; test: Antimicrobial activity against Staphylococcus aureus ATCC 209P by serial dilution method; type: functional
[19] = tested on: Pseudomonas aeruginosa; test: Antimicrobial activity against Pseudomonas aeruginosa ATCC 9027 by serial dilution method; type: functional
[20] = tested on: M-HeLa; test: Induction of apoptosis in human M-HeLa cells assessed as increase in bcl2 expression at IC50 incubated for 24 hrs by luminescence based assay; type: functional, cell-based
[21] = tested on: M-HeLa; test: Induction of apoptosis in human M-HeLa cells assessed as increase in Akt expression at IC50 incubated for 24 hrs by luminescence based assay; type: functional, cell-based
[22] = tested on: A549; test: Antiproliferative activity against human A549 cells by fluorescence based viable cell counting method; type: functional
[23] = tested on: PC-3; test: Antiproliferative activity against human PC3 cells by fluorescence based viable cell counting method; type: functional
[24] = Homo sapiens, MCF7, read-out: IC50
[25] = Homo sapiens, M-HeLa, read-out: IC50

| Compound | hemolysis at 1 h, 10 uM [1] [%] | Activity [2] | MIC [3] [µM] | MIC [5] [µM] | MIC [6] [µM] | MIC [9] [µM] | IC50 [10, 24] [µM] | hemolysis at 1 h, 50 uM [11] [%] | MIC [12] [µM] | IC50 ([13]; Homo sapiens, read-out: IC50) [µM] | IC50 [14, 25] [µM] | hemolysis at 1 h, 100 uM [17] [%] | MIC [18] [µM] | MIC [19] [µM] | further results |
| --- | --- | --- | --- | --- | --- | --- | --- | --- | --- | --- | --- | --- | --- | --- | --- |
| CC(C)(C)c1cc(C(c2ccc(N)nc2N)P(=O)(Oc2ccccc2)Oc2ccccc2)cc(C(C)(C)C)c1O (centres undefined) | 0 | Active | > 500 | > 500 | > 500 | > 500 | 16 | 0.5 | > 500 | 52 | 7.4 | 1.9 | > 500 | > 500 | Activity [4]: inactive; Activity [7]: Active; fold change (FC) [8]: 2; Activity [15]: inactive; Activity [16]: Active; Activity [20]: Active; Activity [21]: Active |
| CC(C)OP(=O)(OC(C)C)C(c1cc(C(C)(C)C)c(O)c(C(C)(C)C)c1)c1ccc(N)cc1N (centres undefined) |  | Active | > 500 | > 500 | > 500 | > 500 |  |  | > 500 |  |  |  | > 500 | > 500 |  |
| CC(C)(C)C1=CC(=CP(=O)(Oc2ccccc2)Oc2ccccc2)C=C(C(C)(C)C)C1=O |  | Active |  |  |  |  | 38.4 |  |  | 17 | 14.3 |  |  |  |  |
| COP(=O)(OC)C(c1cc(C(C)(C)C)c(O)c(C(C)(C)C)c1)c1ccc(N)nc1N (centres undefined) | 0 | Active | > 500 | > 500 | > 500 | > 500 | 31 | 0 | > 500 | > 100 | 16.1 | 0 | > 500 | > 500 | Activity [22]: inactive; Activity [23]: inactive |
| CCOP(=O)(OCC)C(c1cc(C(C)(C)C)c(O)c(C(C)(C)C)c1)c1ccc(N)cc1N (centres undefined) | 0 | Active | > 500 | > 500 | > 500 | > 500 | 68.2 | 0 | > 500 | 54.9 | 39 | 0 | > 500 | > 500 |  |
| CC/C(=C(\c1ccccc1)c1ccc(OCCN(C)C)cc1)c1ccccc1 [TAMOXIFEN] |  |  |  |  |  |  |  |  |  | 42.1 |  |  |  |  |  |
| COc1cccc2c1C(=O)c1c(O)c3c(c(O)c1C2=O)C[C@@](O)(C(=O)CO)C[C@@H]3O[C@H]1C[C@H](N)[C@H](O)[C@H](C)O1 [DOXORUBICIN] |  |  |  |  |  |  |  |  |  | 1.3 | 3 |  |  |  |  |
| CC(C)(C)c1cc(CP(=O)(Oc2ccccc2)Oc2ccccc2)cc(C(C)(C)C)c1O |  | Active |  |  |  |  | > 100 |  |  | 40 | 15.6 |  |  |  |  |
| CC(C)OP(=O)(OC(C)C)C(c1cc(C(C)(C)C)c(O)c(C(C)(C)C)c1)c1ccc(N)nc1N (centres undefined) | 0 | Active | > 500 | > 500 | > 500 | > 500 | 21.8 | 0 | > 500 | > 100 | 38 | 0.3 | > 500 | > 500 |  |
| COP(=O)(C=C1C=C(C(C)(C)C)C(=O)C(C(C)(C)C)=C1)OC |  | Active |  |  |  |  | > 100 |  |  | 24.1 | 17.2 |  |  |  |  |
| CC(C)OP(=O)(Cc1cc(C(C)(C)C)c(O)c(C(C)(C)C)c1)OC(C)C |  | Active |  |  |  |  | 68.2 |  |  | 96 | 30 |  |  |  |  |
| CCOP(=O)(OCC)C(c1cc(C(C)(C)C)c(O)c(C(C)(C)C)c1)c1ccc(N)nc1N (centres undefined) | 0 | Active | > 500 | > 500 | > 500 | > 500 | 34.2 | 0 | > 500 | > 100 | 17.1 | 0 | > 500 | > 500 |  |
| CC(C)OP(=O)(C=C1C=C(C(C)(C)C)C(=O)C(C(C)(C)C)=C1)OC(C)C |  | Active |  |  |  |  | 66 |  |  | 22.4 | 10.1 |  |  |  |  |
| COP(=O)(Cc1cc(C(C)(C)C)c(O)c(C(C)(C)C)c1)OC | 0 | Active |  |  |  |  | > 100 | 0 |  | > 100 | 26 | 0 |  |  |  |
| COP(=O)(OC)C(c1cc(C(C)(C)C)c(O)c(C(C)(C)C)c1)c1ccc(N)cc1N (centres undefined) | 0 | Active | > 500 | > 500 | > 500 | > 500 | > 100 | 0 | > 500 | > 100 | 45.3 | 0 | > 500 | > 500 |  |
| CCCOP(=O)(OCCC)C(c1cc(C(C)(C)C)c(O)c(C(C)(C)C)c1)c1ccc(N)nc1N (centres undefined) |  | Active |  |  |  |  | 32.3 |  |  | 28.1 | 11.1 |  |  |  |  |
| CC(C)(C)c1cc(C(c2ccc(N)cc2N)P(=O)(Oc2ccccc2)Oc2ccccc2)cc(C(C)(C)C)c1O (centres undefined) | 0 | Active | > 500 | > 500 | > 500 | > 500 |  | 0.9 | > 500 |  |  | 1.9 | > 500 | > 500 | IC50 ([10]; mcf7): Nd(Toxic); IC50 [13]: Nd(Toxic); IC50 ([14]; m-hela): Nd(Toxic) |
